In EP0070049A1, “Derivative of acetylsalicylic acid having an analgetic, antipyretic, antiphlogistic and bronchosecretolytic activity” (UNIONE CHIMICA MEDICAMENTI- DIFME-S.p.A., priority 1981, dated 1983):

Test system: oedème induit par carraghénine injectée dans la patte de rats
Assay: Carrageenan-induced rat paw oedema (antiphlogistic activity, Winter et al)
Format: in vivo
Conditions: voie orale; for Volume de l'oedème - ml ± d.s. après 3 heures: 3 heures après le traitement oedémigène; for Volume de l'oedème - ml ± d.s. après 6 heures: 6 heures après le traitement oedémigène
Description: L'activité antiphlogistique de l'acétylsalicylate de 2(o-méthoxy-phénoxy) éthanol a été évaluée en comparaison avec celle de l'acide acétylsalicylique sur la base de la variation de volume de l'oedème induit par carraghénine injectée dans la patte de rats, suivant la technique décrite par Winter et al (Proc. Soc. Exp. Biol. Med., volume III, page 544, 1962). Les résultats de l'élaboration des épreuves sont indiqués dans le Tableau 1, dans lequel le volume de l'oedème est indiqué en millilitres z la déviation standard, et il a été mesuré 3, 4,5 et 6 heures après le traitement oedémigène; la dose de substance est indiquée en milligrammes de substance administrée par voie orale pour chaque kilogramme de poids corporel des rats; les valeurs marquées par * correspondent à une probabilité d'erreur p < 0,05, les valeurs marquées correspondent à une probabilité d'erreur p < 0,01, calculées sur les valeurs des contrôles, et les valeurs indiquées entre parenthèses indiquent l'inhibition en pour-cent calculée par rapport aux contrôles.

## COc1ccccc1OCCOC(=O)c1ccccc1OC(C)=O [acétylsalicylate de 2(o-méthoxy-phénoxy)éthanol]
100 mg/Kg
  inhibition en pour-cent calculée par rapport aux contrôles, après 3 heures: 44,0 pour-cent
  Volume de l'oedème - ml ± d.s. après 3 heures: 0,380 ± 0,18 ml
  inhibition en pour-cent calculée par rapport aux contrôles, après 6 heures: 39,0 pour-cent
  Volume de l'oedème - ml ± d.s. après 6 heures: 0,291 ± 0,13 ml
100 mg/Kg, 4,5 heures
  inhibition en pour-cent calculée par rapport aux contrôles, après 4,5 heures: 45,0 pour-cent
100 mg/Kg, 4,5 heures après le traitement oedémigène
  Volume de l'oedème - ml ± d.s. après 4,5 heures: 0,333 ± 0,17 ml
200 mg/Kg
  inhibition en pour-cent calculée par rapport aux contrôles, après 3 heures: 70,0 pour-cent
  Volume de l'oedème - ml ± d.s. après 3 heures: 0,20 + 0,1 ml
  inhibition en pour-cent calculée par rapport aux contrôles, après 6 heures: 65,0 pour-cent
  Volume de l'oedème - ml ± d.s. après 6 heures: 0,16 + 0,1 ml
200 mg/Kg, 4,5 heures
  inhibition en pour-cent calculée par rapport aux contrôles, après 4,5 heures: 67,0 pour-cent
200 mg/Kg, 4,5 heures après le traitement oedémigène
  Volume de l'oedème - ml ± d.s. après 4,5 heures: 0,20 + 0,11 ml
